Among the data in BindingDB's records for doi:10.1021/cb800306y (Stony Brook University, 2009) are Ki values, retold here.

pKi: −log10 of the molar value.

Test [1] addresses T1, Enoyl-[acyl-carrier-protein] reductase [NADH] (Francisella tularensis subsp. novicida (strain U112), UniProt A0Q794).
T1 sequence (A0Q794 whole entry): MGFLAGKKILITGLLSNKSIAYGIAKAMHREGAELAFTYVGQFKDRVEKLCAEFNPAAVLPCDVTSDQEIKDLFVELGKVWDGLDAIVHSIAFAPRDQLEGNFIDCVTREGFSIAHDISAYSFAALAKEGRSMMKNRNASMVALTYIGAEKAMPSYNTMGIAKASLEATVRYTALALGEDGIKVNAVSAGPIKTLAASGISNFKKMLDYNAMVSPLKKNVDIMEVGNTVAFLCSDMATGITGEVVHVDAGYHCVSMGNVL
Description: Enzyme Inhibition Assay. Conditions: pH 8; 25 °C. The source says:
Inhibition constant binding to E-NAD+

For test [2], the target named is T1, Enoyl-[acyl-carrier-protein] reductase [NADH]. Description: Enzyme Inhibition Assay. Conditions: pH 8; 25 °C. The source says: Inhibition constant binding to E-NADH
This is another data set of the same source.

What is called pKi is the negative decadic logarithm of the Ki, by convention in mol/L. As for `Oc1cc(Cl)ccc1Oc1ccc(Cl)cc1Cl`, the pKi in test [1] is 10.29; in test [2], 5.30.

As for `CCCCCCCCc1ccc(Oc2ccccc2)c(O)c1` [5-Octyl-2-phenoxy-phenol], the pKi in test [1] was 7.63; in test [2], 6.72.

Consider `CCCCCCc1ccc(Oc2ccccc2)c(O)c1` [5-hexyl-2-phenoxyphenol], for which the pKi in test [1] was 8.57; in test [2], 6.48.

For `CCc1ccc(Oc2ccccc2)c(O)c1` [PT01], the pKi is 8.68 in test [1] and 6.51 in test [2].

For `CCCc1ccc(Oc2ccccc2)c(O)c1` [PT02], the results for the pKi in test [1] and in test [2] were 9.36 and 6.16, respectively.

For `Oc1cc(Cl)ccc1Oc1ccccc1` [PT52], the pKi in test [1] was 8.72; in test [2], 6.51.

`Cc1ccc(Oc2ccccc2)c(O)c1` [PT53]: the pKi in test [1] was 8.72; in test [2], 6.61.

With `Oc1cc(F)ccc1Oc1ccccc1` [PT55], the pKi in test [1] was 6.54.
